Values quoted from earlier work, collected in US20080261937A1, “PHARMACEUTICAL COMPOSITIONS AND METHOD FOR TREATING PEDIATRIC HYPOGONADISM” (priority 2007, published 2008).

## C[C@]12CC[C@H]3[C@@H](CCC4=CC(=O)CC[C@@]43C)[C@@H]1CC[C@@H]2O [testosterone]
Circulating testosterone
  bound to proteins in the blood: 98%
In males
  share bound weakly to albumin: 60%
  share of binding to sex hormone binding globulin (SHBG): approximately 40%
